Results taken from patent US20020026034A1, “3-AMINOETHYL-N-AMIDINO-2,5-DIHYDROPYRROLE DERIVATIVES HAVING ARGININE MIMETIC PROPERTIES” (priority 1995, published 2002).
Blank lines part the entries; values can stand above or below the molecule they belong to.

Assays:
horse thrombin = experiment: Thrombin time (citrate plasma, sphere coagulometer); format: biochemical; conditions: control thrombin time ca 24 seconds
Method: A common test in clinical coagulation diagnostics is the thrombin time. This parameter detects the action of thrombin on fibrinogen and the formation of blood clots. Inhibitors of thrombin result in an increased thrombin time
In order to obtain plasma 9 parts fresh blood from healthy donors are mixed with one part sodium citrate solution (0 11 mol/l) and centrifuged at ca 3000 rpm for 10 min at room temperature, The plasma was removed by pipette and can be stored for ca 8 h at room temperature.
200 μl citrate plasma was incubated for 2 min at 37° C. in a sphere coagulometer (KC10 from the Amelung-Company). 10 μl dimethylsulfoxide (DMSO) or a solution of the active substance in DMSO was added to 190 μl preheated thrombin reagent (Boehringer Mannheim, GmbH. contains ca. 3 U/ml horse thrombin and […]) A stopwatch was started when this 200 μl solution was added to the plasma and the time point at which coagulation starts was determined In the control measurements the thrombin time was ca 24 seconds and was increased by the compound of example 3 depending on the concentration (test concentration/increase of thrombin time 5 μM>300*sec: 0 5 μM/96 sec. 0 05 μM/9 sec) [* the experiment was stopped after 5 minutes]

human thrombin = target: T1, human thrombin (Homo sapiens, UniProt P00734); experiment: Thrombin inhibition, kinetic measurement with substrate S-2238; format: biochemical; conditions: pH 7 5, 25° C., substrate H-(D)-Phe-Pro-Arg-pNA
T1 construct: purchased Sigma
Method: The kinetic measurements were carried out in 0 1 M phosphate buffer which contained 0 2 M sodium chloride and 0 5 % polyethylene glycol 6000 at a pH=7 5 and 25° C. using the substrate H-(D)-Phe-Pro-Arg-pNA (S-2238 Kabi) and human thrombin (Sigma specific activity=2150 NIH-units/mg) in polystyrene semimicrocuvettes in a total volume of 1 ml
Since the measurement curves obtained in both experiments were linear and parallel, the active substance of formula (I) is a rapid thombin inhibitor. The inhibition constant Ki was determined as follows The substrate was added at concentrations of 100 μM. 50 μM. 30 μM, 20 μM and at each substrate concentration a measurement was carried out without inhibitor and three measurements were carried out in the presence of various concentrations of the inhibitor of formula (I). The reactions were started by addition of thrombin. The increase in absorbance at 405 nm caused by the formation of p-nitroanilide was monitored for a time period of 12 min. Measurement points (time versus absorbance) were transferred to a PC at intervals of 20 sec. […] From one measurement series (constant inhibitor concentration, variable substrate concentrations) Km′ and Vmax were determined by a non-linear fit to the equation [formula]
Finally Ki was determined from the total series of measurements by non-linear fit to the equation [formula]

[1] = target: T2, bovine pancreatic trypsin (Bos taurus, UniProt P00760); experiment: Inhibition of trypsin; format: biochemical; conditions: measured as described for thrombin, Km=45 μM, read-out: inhibition constant Ki
T2 construct: purchased Sigma; host or cells: bovine pancreas
T2 sequence (P00760 24-246): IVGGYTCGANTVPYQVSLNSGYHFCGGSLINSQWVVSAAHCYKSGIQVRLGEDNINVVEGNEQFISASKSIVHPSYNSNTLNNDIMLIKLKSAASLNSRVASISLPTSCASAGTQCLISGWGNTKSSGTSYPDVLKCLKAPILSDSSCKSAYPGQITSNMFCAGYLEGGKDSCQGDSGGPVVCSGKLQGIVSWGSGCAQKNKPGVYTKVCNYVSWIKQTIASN
Method: 10 mg bovine pancreatic trypsin (Sigma) was dissolved in […] hydrochloric acid and stored in a refrigerator 20 μl thereof was admixed with 980 ul 1 mM hydrochloric acid. 25 μl thereof was used for each measurement. The measurement was carried out as described for thrombin. Km=45 μM.

[2] = target: isolated activated GpIIb/IIIa receptor (Homo sapiens, UniProt P05106+P08514); experiment: GpIIb/IIIa fibrinogen ELISA; conditions: fibrinogen binding to coated GpIIb/IIIa receptor; read-out: gpIIb/IIIa-Inhibition IC50
Chain of isolated activated GpIIb/IIIa receptor (P08514 32-887 limits assumed): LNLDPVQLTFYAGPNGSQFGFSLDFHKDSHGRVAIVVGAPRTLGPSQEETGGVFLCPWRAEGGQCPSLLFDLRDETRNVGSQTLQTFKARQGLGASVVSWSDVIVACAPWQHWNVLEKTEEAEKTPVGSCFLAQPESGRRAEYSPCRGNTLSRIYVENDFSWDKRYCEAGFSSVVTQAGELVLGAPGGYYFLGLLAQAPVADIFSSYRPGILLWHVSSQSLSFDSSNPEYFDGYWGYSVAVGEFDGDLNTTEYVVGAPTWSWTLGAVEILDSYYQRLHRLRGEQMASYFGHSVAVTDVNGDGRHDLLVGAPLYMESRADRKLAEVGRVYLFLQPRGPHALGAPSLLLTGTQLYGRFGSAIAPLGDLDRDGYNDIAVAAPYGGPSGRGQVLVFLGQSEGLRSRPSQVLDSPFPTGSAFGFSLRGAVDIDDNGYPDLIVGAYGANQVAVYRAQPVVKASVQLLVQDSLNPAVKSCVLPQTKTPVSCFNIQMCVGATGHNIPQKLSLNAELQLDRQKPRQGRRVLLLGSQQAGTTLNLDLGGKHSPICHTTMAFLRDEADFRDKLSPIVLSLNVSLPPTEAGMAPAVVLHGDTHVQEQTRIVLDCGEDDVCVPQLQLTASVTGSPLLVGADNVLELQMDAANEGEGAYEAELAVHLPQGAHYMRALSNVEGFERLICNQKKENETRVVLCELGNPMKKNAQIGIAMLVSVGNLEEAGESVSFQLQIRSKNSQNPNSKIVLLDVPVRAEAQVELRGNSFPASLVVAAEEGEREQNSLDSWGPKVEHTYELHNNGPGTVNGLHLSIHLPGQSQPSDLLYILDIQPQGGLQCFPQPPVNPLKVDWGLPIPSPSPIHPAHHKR
Chain of isolated activated GpIIb/IIIa receptor (P08514 891-1039 partner limits assumed): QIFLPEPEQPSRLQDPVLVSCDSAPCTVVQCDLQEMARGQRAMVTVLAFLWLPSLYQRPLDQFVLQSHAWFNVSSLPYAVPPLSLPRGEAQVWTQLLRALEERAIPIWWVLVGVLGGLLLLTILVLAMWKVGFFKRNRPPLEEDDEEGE
Chain of isolated activated GpIIb/IIIa receptor (P05106 27-788): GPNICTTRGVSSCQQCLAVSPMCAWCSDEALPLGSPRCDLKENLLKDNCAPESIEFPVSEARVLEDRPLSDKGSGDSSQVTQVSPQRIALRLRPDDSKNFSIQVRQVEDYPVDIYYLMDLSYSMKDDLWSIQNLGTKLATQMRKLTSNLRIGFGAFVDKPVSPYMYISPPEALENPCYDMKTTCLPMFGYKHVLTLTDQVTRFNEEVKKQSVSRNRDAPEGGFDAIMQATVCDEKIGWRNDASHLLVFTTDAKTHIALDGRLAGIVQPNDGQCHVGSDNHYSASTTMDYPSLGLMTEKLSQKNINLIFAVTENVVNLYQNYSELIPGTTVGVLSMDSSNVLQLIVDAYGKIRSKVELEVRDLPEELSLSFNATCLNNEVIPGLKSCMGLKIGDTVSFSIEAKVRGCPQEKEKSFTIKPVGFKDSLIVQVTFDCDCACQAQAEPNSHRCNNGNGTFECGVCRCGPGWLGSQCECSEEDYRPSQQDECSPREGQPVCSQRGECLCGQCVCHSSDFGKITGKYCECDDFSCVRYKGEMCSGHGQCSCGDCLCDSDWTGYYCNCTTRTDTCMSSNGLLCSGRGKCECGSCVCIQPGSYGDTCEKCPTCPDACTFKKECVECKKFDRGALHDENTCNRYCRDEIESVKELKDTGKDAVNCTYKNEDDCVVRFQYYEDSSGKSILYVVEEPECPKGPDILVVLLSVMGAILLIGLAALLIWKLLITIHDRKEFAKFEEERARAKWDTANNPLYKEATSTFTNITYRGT
Method: The GpIlb/Illa fibrinogen Elisa is a modification of assays which are described in the following literature: Nachman, R. L. & Leung, L. L. K. (1982): J. Clin. Invest. 69: 263-269 and Wright, P. S. et al. (1993): Biochem. J. 293:263-267.
Microtitre plates were coated overnight with 2 μg/ml isolated activated GpIIb/IIIa receptor. After unbound receptor had been removed by washing several times the surface of the plates is blocked with 1% casein and it is washed again. The test substance is added at the required concentrations and the plates are incubated for 10 minutes while shaking. The natural ligand of the gpIIb/IIIa receptor, fibrinogen, is added. After incubating for 1 hour unbound fibrinogen is removed by washing several times and the bound fibrinogen is determined by means of a peroxidase-conjugated, anti-fibrinogen monoclonal antibody by measuring the optical density at 405 nm in an ELISA instrument. The inhibition of a fibrinogen-GpIIb/IIIa interaction results in a low optical density. The IC50 value was determined by a concentration/effect curve.

Molecule: HOOC—CH2-D-Cha-(N-cyclopentyl)-Gly-Adc [Example 3]
increase of thrombin time (horse thrombin; test concentration 0 05 μM): 9 s
increase of thrombin time (horse thrombin; test concentration 0 5 μM): 96 s
increase of thrombin time (horse thrombin; test concentration 5 μM, experiment stopped after 5 minutes): > 300 s

thrombin inhibition (in words) (human thrombin): inhibits thrombin
Molecule: CN[C@H](Cc1ccccc1)C(=O)N1CCC[C@H]1C(=O)NCCC1=CCN(C(=N)N)C1 [Example 4]

Molecule: N=C(N)N1CC=C(CCNC(=O)[C@@H]2C[C@@H]3CC[C@@H](O)C[C@@H]3N2C(=O)[C@@H](Cc2ccccc2)NC(=O)[C@H](O)Cc2ccccc2)C1 [Example 1, D-Pla-D-Phe-L-Choi-Adc]
Ki [1]: 0.1 µM

Molecule: N=C(N)N1CC=C(CC(N)C(=O)NCC(=O)N[C@@H](CC(=O)O)C(=O)N[C@@H](Cc2ccccc2)C(N)=O)C1 (stereo partly drawn) [Example 11, Ada-Gly-Asp-Phe-NH2]
IC50 [2]: 12.8 µM
